Assay results reported in PubChem BioAssay AID1963853 (Molecular Pharmacology Branch, DTP, NCI, 2024).

Test system: 266295-075-R-J1-PDC spheroid viability
Assay: Anticancer human tumor 266295-075-R-J1-PDC patient-derived head and neck squamous carcinoma cell line growth inhibition [POLQ]
Conditions: spheroids with HUVEC and MSC; for IC50: curve of first compound; for viability, T/C: stronger effect = lower value
Summary of the method: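 Patient-derived tumour cells were co-cultured with HUVEC and mesenchymal stem cells as multicellular spheroids at 37 °C. They were treated with POLQ inhibitors (novobiocin, ART-558, RP6685) alone or combined with other agents. Top concentrations were at or near clinical Cmax (otherwise 10 microM; SN-38 at 1 microM), decreasing in half-log steps.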

[1] = second compound 0.0316 µM, first compound 0.0316 µM
[2] = second compound 0.0316 µM, first compound 0.1 µM
[3] = second compound 0.0316 µM, first compound 0.316 µM
[4] = second compound 0.0316 µM, first compound 1 µM
[5] = second compound 0.0316 µM, first compound 3.16 µM
[6] = second compound 0.0316 µM, first compound 10 µM
[7] = second compound 0.1 µM, first compound 0.0316 µM
[8] = second compound 0.1 µM, first compound 0.1 µM
[9] = second compound 0.1 µM, first compound 0.316 µM
[10] = second compound 0.1 µM, first compound 1 µM
[11] = second compound 0.1 µM, first compound 3.16 µM
[12] = second compound 0.1 µM, first compound 10 µM
[13] = second compound 0.316 µM, first compound 0.0316 µM
[14] = second compound 0.316 µM, first compound 0.1 µM
[15] = second compound 0.316 µM, first compound 0.316 µM
[16] = second compound 0.316 µM, first compound 1 µM
[17] = second compound 0.316 µM, first compound 3.16 µM
[18] = second compound 0.316 µM, first compound 10 µM
[19] = second compound 1 µM, first compound 0.0316 µM
[20] = second compound 1 µM, first compound 0.1 µM
[21] = second compound 1 µM, first compound 0.316 µM
[22] = second compound 1 µM, first compound 1 µM
[23] = second compound 1 µM, first compound 3.16 µM
[24] = second compound 1 µM, first compound 10 µM
[25] = second compound 3.16 µM, first compound 0.0316 µM
[26] = second compound 3.16 µM, first compound 0.1 µM
[27] = second compound 3.16 µM, first compound 0.316 µM
[28] = second compound 3.16 µM, first compound 1 µM
[29] = second compound 3.16 µM, first compound 3.16 µM
[30] = second compound 3.16 µM, first compound 10 µM
[31] = second compound 10 µM, first compound 0.0316 µM
[32] = second compound 10 µM, first compound 0.1 µM
[33] = second compound 10 µM, first compound 0.316 µM
[34] = second compound 10 µM, first compound 1 µM
[35] = second compound 10 µM, first compound 3.16 µM
[36] = second compound 10 µM, first compound 10 µM
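Also: spheroids exposed to compounds for seven days before readout.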

CC(C)n1c(=O)n(C)c2cnc3cc(F)c(-c4ccc(OCCCN5CCCCC5)nc4)cc3c21 + COC1C(OC(N)=O)C(O)C(Oc2ccc3c(O)c(NC(=O)c4ccc(O)c(CC=C(C)C)c4)c(=O)oc3c2C)OC1(C)C
IC50 (second compound 0.0316 µM): > 10 µM
IC50 (second compound 0.1 µM): > 10 µM
IC50 (second compound 0.316 µM): > 10 µM
IC50 (second compound 1 µM): > 10 µM
IC50 (second compound 3.16 µM): > 10 µM
IC50 (second compound 10 µM): > 10 µM
viability, T/C [1]: 102%
viability, T/C [2]: 86.7%
viability, T/C [3]: 97.2%
viability, T/C [4]: 93.8%
viability, T/C [5]: 83%
viability, T/C [6]: 72.2%
viability, T/C [7]: 105%
viability, T/C [8]: 95.5%
viability, T/C [9]: 90.3%
viability, T/C [10]: 96.5%
viability, T/C [11]: 82.8%
viability, T/C [12]: 74.5%
viability, T/C [13]: 103%
viability, T/C [14]: 114%
viability, T/C [15]: 90.7%
viability, T/C [16]: 100%
viability, T/C [17]: 93.9%
viability, T/C [18]: 57.2%
viability, T/C [19]: 121%
viability, T/C [20]: 99.5%
viability, T/C [21]: 91.8%
viability, T/C [22]: 86.3%
viability, T/C [23]: 74.8%
viability, T/C [24]: 77.7%
viability, T/C [25]: 92.8%
viability, T/C [26]: 85.2%
viability, T/C [27]: 101%
viability, T/C [28]: 78.9%
viability, T/C [29]: 74.9%
viability, T/C [30]: 66.2%
viability, T/C [31]: 124%
viability, T/C [32]: 88.4%
viability, T/C [33]: 78.3%
viability, T/C [34]: 78.5%
viability, T/C [35]: 83.3%
viability, T/C [36]: 66.3%

CC1COCCN1c1cc(C2(O)CC3CCC(C2)O3)c2cnn(-c3ccn[nH]3)c2n1 (stereo unspecified) + COC1C(OC(N)=O)C(O)C(Oc2ccc3c(O)c(NC(=O)c4ccc(O)c(CC=C(C)C)c4)c(=O)oc3c2C)OC1(C)C
IC50 (second compound 0.0316 µM): 1.13 µM
IC50 (second compound 0.1 µM): 1.29 µM
IC50 (second compound 0.316 µM): 1.05 µM
IC50 (second compound 1 µM): 0.921 µM
IC50 (second compound 3.16 µM): 0.898 µM
IC50 (second compound 10 µM): 0.903 µM
viability, T/C [1]: 84.7%
viability, T/C [2]: 79.8%
viability, T/C [3]: 65.6%
viability, T/C [4]: 52.8%
viability, T/C [5]: 36.9%
viability, T/C [6]: 29.8%
viability, T/C [7]: 92%
viability, T/C [8]: 80.8%
viability, T/C [9]: 62.7%
viability, T/C [10]: 51.5%
viability, T/C [11]: 44.6%
viability, T/C [12]: 26.8%
viability, T/C [13]: 103%
viability, T/C [14]: 69.5%
viability, T/C [15]: 64.8%
viability, T/C [16]: 56.1%
viability, T/C [17]: 43.2%
viability, T/C [18]: 30.4%
viability, T/C [19]: 87.2%
viability, T/C [20]: 73.3%
viability, T/C [21]: 75.3%
viability, T/C [22]: 46.8%
viability, T/C [23]: 41.7%
viability, T/C [24]: 34.4%
viability, T/C [25]: 84.2%
viability, T/C [26]: 74.7%
viability, T/C [27]: 57%
viability, T/C [28]: 48.2%
viability, T/C [29]: 42.9%
viability, T/C [30]: 31%
viability, T/C [31]: 81.2%
viability, T/C [32]: 81.9%
viability, T/C [33]: 63.2%
viability, T/C [34]: 49.4%
viability, T/C [35]: 39.3%
viability, T/C [36]: 34.2%

CCc1cc2c(N3CCc4c(cc(Cn5ccnc5)cc4-c4cn(C)nc4C(F)(F)F)C3=O)cc(C)nc2c(OC)n1 + COC1C(OC(N)=O)C(O)C(Oc2ccc3c(O)c(NC(=O)c4ccc(O)c(CC=C(C)C)c4)c(=O)oc3c2C)OC1(C)C
IC50 (second compound 0.0316 µM): > 10 µM
IC50 (second compound 0.1 µM): > 10 µM
IC50 (second compound 0.316 µM): > 10 µM
IC50 (second compound 1 µM): > 10 µM
IC50 (second compound 3.16 µM): > 10 µM
IC50 (second compound 10 µM): > 10 µM
viability, T/C [1]: 112%
viability, T/C [2]: 101%
viability, T/C [3]: 114%
viability, T/C [4]: 108%
viability, T/C [5]: 134%
viability, T/C [6]: 148%
viability, T/C [7]: 105%
viability, T/C [8]: 102%
viability, T/C [9]: 93.8%
viability, T/C [10]: 121%
viability, T/C [11]: 134%
viability, T/C [12]: 157%
viability, T/C [13]: 85.9%
viability, T/C [14]: 94.2%
viability, T/C [15]: 118%
viability, T/C [16]: 107%
viability, T/C [17]: 125%
viability, T/C [18]: 163%
viability, T/C [19]: 75.3%
viability, T/C [20]: 92.8%
viability, T/C [21]: 102%
viability, T/C [22]: 115%
viability, T/C [23]: 145%
viability, T/C [24]: 128%
viability, T/C [25]: 106%
viability, T/C [26]: 95.7%
viability, T/C [27]: 108%
viability, T/C [28]: 113%
viability, T/C [29]: 126%
viability, T/C [30]: 147%
viability, T/C [31]: 98.6%
viability, T/C [32]: 83.8%
viability, T/C [33]: 82.7%
viability, T/C [34]: 120%
viability, T/C [35]: 119%
viability, T/C [36]: 154%
